Measured values from US8772347B2, “Use of a pharmaceutical composition for promoting proliferation and/or migration of skin cells, and for improving wound healing in a subject” (Kaohsiung Medical University, priority 2011, dated 2014).

Key:
VEGF [1] = test: ELISA, growth factor expression in conditioned medium of keratinocytes; format: cell-based, human; conditions: 24 hr, medium supernatant, mean ± SD
Procedure: (§1) Skin cells are cultured following the method provided in Exp Dermatol 2011; 20: 242-8. Human skin fibroblasts are derived from Chung-Ho Memorial Hospital, Kaohsiung Medical University, Taiwan, ROC, and incubated in Dulbecco's Modified Eagle Medium including 10% fetal calf serum, 100 μg/ml streptomycin, and 250 ng/ml amphotericin B. Human keratinocytes are isolated from foreskin primary culture and cultured in Keratinocyte-SFM Medium supplemented with Bovine Pituitary Extract and EGF. All of these cells are incubated at 37° C. in a humidified incubator with 5% CO2 atmosphere.
(§2) Enzyme-linked immunoassay (ELISA) is performed to analyze the effect on the growth factor expression of skin cells treated with different 6-DG concentration (dissolved in DMSO). Firstly, 6-DG of different concentration is incubated in a 6-well culture dish with skin cells cultured in a conditioned medium for 24 hr. Supernant of the conditioned medium is collected for analyzing the concentration of TGF-β, VEGF, and PDGF-αβ following the directions provided by DuoSet ELISA development kits (R&D Systems, USA). With regard to whether DMSO has effect on the growth factor expression or not, skin cells treated with DMSO are used as a control.

PDGF-αβ [2] = test: as above; format: cell-based, human; conditions: 24 hr, medium supernatant, mean ± SD
Procedure: as §1, §2

TGF-β [3] = test: as above; format: cell-based, human; conditions: 24 hr, medium supernatant, mean ± SD
Procedure: as §1, §2

MMP-1 [4] = test: Western blotting, human fibroblasts; format: cell-based; conditions: compared with cells only treated with PMA
Procedure: (§3) Signal transduction of skin cells treated with 6-DG is studied. Firstly, 6-DG of different concentration is incubated with 1×10^6 human fibroblasts. After being incubated for 24 hr, the human fibroblasts are washed twice with phosphate-buffered saline (PBS), and then lysed by a lysis buffer containing 50 mM Tris-HCl, pH7.5, 137 mM sodium chloride, 1 mM EDTA, 1% Nonidet P-40, 10% glycerol, 0.1 mM sodium orthovanadate, 10 mM sodium pyrophosphate, 20 mM β-glycerophosphate, 50 mM sodium fluoride, 1 mM phenylmethysulfonyl fluoride, 2 mM leupeptin, and 2 μg/ml aprotinin. A cell extract having the lysed human fibroblasts is separated by a centrifugal force of 10,000 g at 4° C., and supernant of the cell extract is collected for determining protein concentration using Bicinchoninic acid protein assay kit (Pierce, Rockford, Ill., USA). Equal concentration of protein in the supernant is separated by SDS-PAGE, and then blotted to a PVDF membrane (PALL Life Science, Ann Arbor, Mich., USA). After being blocked for 1 hr in phosphate-buffered saline & tween (PBST) containing 5% non-fat milk, primary antibodies are added to the membrane. The membrane is washed with PBST twice, and next secondary antibodies against the primary antibodies are added to the membrane. Finally, signals on the membrane are visualized by enhanced chemiluminescence substrate (PerkinElmer, USA). As the description of “BACKGROUND OF THE INVENTION,” it is said that PMA, an activator for protein kinase C, phosphorylates JNK and ERK to produce MMP-1 and inhibits TIMP-1. For further confirming the effect on signal transduction of skin cells treated with 6-DG, the human fibroblasts are incubated with 20 ng/ml PMA prior to being treated with 6-DG.

TIMP-1 = test: Western blotting, human fibroblasts; format: cell-based
Procedure: as §3

collagen = test: Sirius red collagen staining, human fibroblasts; format: cell-based; conditions: for collagen expression level of fibroblasts: FIG. 5(B); for collagen expression level per human fibroblast: FIG. 5(C)
Procedure: Sirius red collagen staining is performed to analyze the effect on the collagen expression of skin cells treated with 6-DG 6-DG of different concentration is added to a 24-well culture dish cultured with human fibroblasts. Medium in the dish is removed and the fibroblasts are washed with PBS twice. 100 μl Sirius Red is added to each well of the dish and incubated at room temperature for 1 hr. After removing the unstained Sirius Red, the fibroblasts are washed with 100 μl 0.1N HCl for at least five times, and then 100 μl 0.1N NaOH is used to extract the stained Sirius Red. Finally, the OD value of the extracted stained Sirius Red is calculated by 540 nm-wavelength light. As the described in “BACKGROUND OF THE INVENTION,” it is said that PMA, an activator for protein kinase C, phosphorylates JNK and ERK to produce MMP-1, and inhibits TIMP-1. With regard to the effect on the collagen expression of skin cells treated with 6-DG, the human fibroblasts are incubated with 20 ng/ml PMA prior to being incubated with 6-DG.

human fibroblasts [5] = test: MTT assay, proliferation of skin cells; format: cell-based; conditions: for proliferation of human fibroblasts compared with control: 24 hr, MTT, FIG. 2(A)
Procedure: as §1
(§4) 3-(4,5-cimethylthiazol-2-yl)-2,5-diphenyl tetrazolium bromide assay (MTT assay) is performed to analyze the effect on the proliferation of skin cells treated with different 6-DG concentration (dissolved in DMSO). Firstly, 6-DG of different concentration is seeded in a 96-well culture dish cultured with skin cells and incubated for 24 hr. MIT solution (5 mg/ml, dissolved in PBS) is added into the dish and incubated again at 37° C. for 2 hr. Medium in the dish is removed, 0.05 ml DMSO is added to the dish, and then the dish is shaken in a dark position for 20 min. Finally, the OD value of each well of the dish is calculated by 595 nm-wavelength light (UV-vis, BioTek, USA). Considering whether DMSO has effect on the skin cell proliferation or not, skin cells treated with DMSO are used as a control.

human keratinocytes [6] = test: MTT assay, proliferation of skin cells; format: cell-based; conditions: 24 hr, FIG. 2(B)
Procedure: as §1, §4

human fibroblasts [7] = test: Proliferation of human fibroblasts with or without PMA (FIG. 5(A)); format: cell-based
MMP-1 [8] = test: Collagen zymography, MMP-1 activity of human fibroblasts; format: cell-based
Procedure: Collagen zymography is performed to analyze the effect on the MMP-1 activity of skin cells treated with 6-DG. After electrophoresis of the foregoing lysed cell extract in SDS-PAGE containing 0.1% collagen, the SDS-PAGE is reacted with 2.5% Triton X-100 to remove SDS and make the protein of the lysed extract folded, and then incubated with a Tris-base buffer containing NaCl, CaCl2, and ZnCl2. Finally, this gel is stained with Coomassie Brilliant Blue R250, and the signal at 52 kDa […] position on the gel is calculated by Gel Pro v4.0 software (Media Cybernetics, Silver Spring, Md., USA).
“BACKGROUND OF THE INVENTION” of the content is said that PMA, an activator for protein kinase C, phosphorylates JNK and ERK to produce MMP-1, and inhibits TIMP-1. For confirming the effect on the MMP-1 activity of skin cells treated with 6-DG, the human fibroblasts are incubated with 20 ng/ml PMA prior to being treated with 6-DG.

c-Jun and ERK = test: Western blotting, human fibroblasts, phosphorylation; format: cell-based; conditions: compared with cells only treated with PMA
Procedure: Signal transduction of skin cells treated with 6-DG is studied. Firstly, 6-DG of different concentration is incubated with 1×10^6 human fibroblasts. After being incubated for 24 hr, the human fibroblasts are washed twice with phosphate-buffered saline (PBS), and then lysed by a lysis buffer containing 50 mM Tris-HCl, pH7.5, 137 mM sodium chloride, 1 mM EDTA, 1% Nonidet P-40, 10% glycerol, 0.1 mM sodium orthovanadate, 10 mM sodium pyrophosphate, 20 mM β-glycerophosphate, 50 mM sodium fluoride, 1 mM phenylmethysulfonyl fluoride, 2 mM leupeptin, and 2 μg/ml aprotinin. A cell extract having the lysed human fibroblasts is separated by a centrifugal force of 10,000 g at 4° C., and supernant of the cell extract is collected for determining protein concentration using Bicinchoninic acid protein assay kit (Pierce, Rockford, Ill., USA). Equal concentration of protein in the supernant is separated by SDS-PAGE, and then blotted to a PVDF membrane (PALL Life Science, Ann Arbor, Mich., USA). After being blocked for 1 hr in phosphate-buffered saline & tween (PBST) containing 5% non-fat milk, primary antibodies are added to the membrane. The membrane is washed with PBST twice, and next secondary antibodies against the primary antibodies are added to the membrane. Finally, signals on the membrane are visualized by enhanced chemiluminescence substrate (PerkinElmer, USA). […]

human fibroblasts [9] = test: Migration of skin cells into wound area (scratch assay, TScratch); format: cell-based
Procedure: as §1
(§5) An assay disclosed in Process Biochemistry 2010; 45:1865-72 is performed to analyze the effect on migration of skin cells treated with different 6-DG concentration (dissolved in DMSO). 5×10^5 skin cells are seeded in a 12-well culture dish and grown to complete confluence. Prior to adding 6-DG of different concentration to the dish, a clean […] would area is created on the skin cells. The wound area is photographed using an inverted phase-contrast microscopy (TE2000-U; Nikon, Tokyo, Japan) equipped with NIS-Elements software (Nikon), and the skin cell migration in the wound area is calculated by the free software “TScratch” (www.cse-lab.ethz.ch/software.html). Considering whether DMSO has effect on the skin cell migration or not, skin cells treated with 0.5% DMSO are used as a control.

human keratinocytes [10] = test: as above; format: cell-based
Procedure: as §1, §5

VEGF [11] = test: ELISA, growth factor expression in conditioned medium of fibroblasts; format: cell-based, human; conditions: 24 hr, medium supernatant, mean ± SD
Procedure: as §1, §2

PDGF-αβ [12] = test: as above; format: cell-based, human; conditions: 24 hr, medium supernatant, mean ± SD
Procedure: as §1, §2

TGF-β [13] = test: as above; format: cell-based, human; conditions: 24 hr, medium supernatant, mean ± SD
Procedure: as §1, §2

[14] = 20 ng/ml PMA prior to 6-DG, compared with PMA only
[15] = 6-DG, compared with untreated (control) and PMA only
[16] = skin cells (fibroblasts and keratinocytes), based on the volume of the composition

## CCCCCC(=O)/C=C(O)/C=C/c1ccc(O)c(OC)c1 [6-DG, 6-dehydrogingerdione]
VEGF [1]; 6-DG 2 μM
  VEGF: 344.3 ± 9.5 pg/mL
VEGF [1]; 6-DG 10 μM
  VEGF: 292.8 ± 7.3 pg/mL
PDGF-αβ [2]; 6-DG 2 μM
  PDGF-αβ: 5.84 ± 0.2 pg/mL
PDGF-αβ [2]; 6-DG 10 μM
  PDGF-αβ: 4.55 ± 0.1 pg/mL
TGF-β [3]; 6-DG 2 μM
  TGF-β: 822.8 ± 15.3 pg/mL
TGF-β [3]; 6-DG 10 μM
  TGF-β: 768.0 ± 9.6 pg/mL
MMP-1 [4]; 20 ng/ml PMA prior to 6-DG
  expression level of MMP-1: down-regulated expression level of MMP-1
MMP-1 [4]; 6-DG
  expression level of MMP-1: down-regulated expression level of MMP-1
TIMP-1; 6-DG 24 hr, compared with fibroblasts untreated
  expression of TIMP-1: up-regulate the expression of TIMP-1
TIMP-1; 6-DG, compared with cells only treated with PMA
  expression level of TIMP-1: up-regulated expression level of TIMP-1
collagen; [14]
  collagen expression level of fibroblasts: still have up-regulated expression of collagen
  collagen expression level per human fibroblast: still has up-regulated expression of collagen
collagen; [15]
  collagen expression level of fibroblasts: up-regulated expression of collagen
  collagen expression level per human fibroblast: up-regulated expression of collagen
Human fibroblasts [5]; 2 μM 6-DG
  proliferation of human fibroblasts compared with control: obviously proliferated
Human fibroblasts [5]; 50 μM 6-DG
  proliferation of human fibroblasts compared with control: obviously proliferated
Human fibroblasts [5]; 100 μM 6-DG
  proliferation of human fibroblasts compared with control: not obviously proliferated
Human fibroblasts [5]; [16]
  effective concentration for promoting skin cell proliferation: 2 to 50 µM
Human keratinocytes [6]; 2 μM 6-DG
  proliferation of human keratinocytes compared with control: obviously proliferated
Human keratinocytes [6]; 50 μM 6-DG
  proliferation of human keratinocytes compared with control: obviously proliferated
Human keratinocytes [6]; 100 μM 6-DG
  proliferation of human keratinocytes compared with control: not obviously proliferated
Human fibroblasts [7]; [14]
  proliferation of fibroblasts: still have obvious proliferation
Human fibroblasts [7]; [15]
  proliferation of fibroblasts: obvious proliferation
MMP-1 [8]; 20 ng/ml PMA prior to 6-DG, compared with fibroblasts only treated with PMA
  activity of MMP-1: lower activity of MMP-1
MMP-1 [8]; 6-DG, compared with fibroblasts only treated with PMA
  activity of MMP-1: lower MMP-1 activity
MMP-1 [8]; 6-DG, compared with fibroblasts untreated, FIGS. 6(A)-6(B)
  activity of MMP-1: no obvious difference
c-Jun and ERK; 20 ng/ml PMA prior to 6-DG
  phosphorylation level of c-Jun and ERK: less phosphorylation level of c-Jun and ERK
c-Jun and ERK; 6-DG
  phosphorylation level of c-Jun and ERK: less phosphorylation level of c-Jun and ERK
Human fibroblasts [9]; 2 μM 6-DG for 24 hr
  migration of human fibroblasts to the wound area: more obvious
Human fibroblasts [9]; 10 μM 6-DG, compared with 2 μM
  migration of human fibroblasts to the wound area: less obvious than that after being treated with 2 μM
Human fibroblasts [9]; [16]
  effective concentration for promoting migration of skin cells: 2 to 50 µM
Human fibroblasts [9]; treated with 6-DG, FIGS. 3(A)-3(B)
  migration of human fibroblasts to the wound area compared with control: obviously migrate to the wound area
Human keratinocytes [10]; 2 μM 6-DG for 24 hr
  migration of human keratinocytes to the wound area: more obvious
Human keratinocytes [10]; 10 μM 6-DG, compared with 2 μM
  migration of human keratinocytes to the wound area: less obvious than that after being treated with 2 μM
Human keratinocytes [10]; treated with 6-DG, FIGS. 3(C)-3(D)
  migration of human keratinocytes to the wound area compared with control: obviously migrate to the wound area
VEGF [11]; 6-DG 2 μM
  VEGF: 432.0 ± 14.6 pg/mL
VEGF [11]; 6-DG 10 μM
  VEGF: 294.5 ± 14.6 pg/mL
PDGF-αβ [12]; 6-DG 2 μM
  PDGF-αβ: 7.1 ± 0.1 pg/mL
PDGF-αβ [12]; 6-DG 10 μM
  PDGF-αβ: 5.3 ± 0.1 pg/mL
TGF-β [13]; 6-DG 2 μM
  TGF-β: 984.5 ± 21.6 pg/mL
TGF-β [13]; 6-DG 10 μM
  TGF-β: 1003.3 ± 24.0 pg/mL
